Patent US20130079309A1, “Method Of Treating Acute Lung Injury Using Sphingosine 1 Phosphate Analogs Or Sphingosine 1 Phosphate Receptor Agonists” (The Board of Trustees of the University of Illinois, priority 2010, published 2013)

Legend:
[1] = system: bleomycin-induced ALI in C57/BL6 mice; experiment: Murine model of bleomycin-induced ALI; conditions: for animals alive by day 12 following bleomycin instillation: bleomycin 1.2 U/kg i.t.; for mice survived to 14 days: bleomycin + compound
Procedure: C57/BL6 mice received bleomycin (1.2 U/kg) or sterile saline administered i.t. (intratracheally) and were then treated with FTY720, (S)-FTY720-phosphonate, (0.1 mg/kg i.p.) or PBS vehicle 3× a week until harvesting. Mice were followed for 14 days to assess mortality rates and multiple indices of lung injury.

β-arrestin = conditions: 1 μM (SEW2871 10 μM; (S)-FTY720-phosphonate 1, 10, 50 μM), 5 h
Procedure: After another 2 h-incubation with fluorescence substrate, the fluorescence intensity (blue and green channels) were detected and the blue/green emission ratio was used as the activation indicator.

[2] = system: LPS-induced lung injury in C57BL/6 mice; experiment: LPS-induced murine lung injury model; conditions: for capillary leak as total BAL protein, relative to PBS control: 1S 0.1-5.0 mg/kg i.p. single dose 1 h after LPS 2.5 mg/kg i.t., FTY720 0.5 mg/kg, S1P 0.026 mg/kg; for peripheral blood leukocyte and lymphocyte levels relative to PBS controls: 18 h after LPS
Procedure: For experiments performed in intact animals, male C57BL/6 mice (8-10 weeks) were anesthetized with intraperitoneal ketamine and acetylpromazine mixture according to the approved protocol. Escherichia coli LPS solution (2.5 mg/kg) or sterile saline was instilled intratracheally via a 20-gauge catheter. Simultaneously, mice received either FTY720 or analogs (in doses: 0.01, 0.1, 0.5, 1, and 5 mg/kg i.p.) or PBS as vehicle. The animals were allowed to recover for 18 h. BAL and lungs were collected and stored at −70° C. for evaluation of lung injury.
Pure BAL fluids prepared for protein measurement or myeloperoxidase activity (MPO) lung homogenates were used to test albumin concentration. The assay was performed in 96-well plastic plates (Nalge Nunc A/S, Roskilde, Denmark). Plates were coated with mouse albumin (Bethyl Lab, Montgomery, Tex.), washed, and blocked. Aliquots (100-μl) of the sample or standard and 100 μl of goat anti-mouse albumin antibody (horseradish peroxidase-conjugated) (1:50,000) were then added, followed by incubation at 37° C. for 1 h. Finally, the substrate 3,3′,5,5′-tetramethylbenzidine was added for 10 min, and the reaction stopped by adding 100 μl of 2 M H2SO4. The absorbance at 450 nm was read on a kinetic microplate reader (Molecular Devices).
Myeloperoxidase (MPO) was isolated and measured from snap-frozen right lungs as follows (see also Remick et al., 1990, Am J Pathol 136: 49-60). The right lung was homogenized in 1 ml of 50 mM potassium phosphate, pH 6.0, with 0.5% hexadecyltrimethylammonium bromide. The resulting homogenate was sonicated and then centrifuged at 12,000 g for 15 min. The supernatant was mixed 1:30 with assay buffer (100 mM potassium phosphate, pH 6.0, 0.005% H2O2, 0.168 mg/ml o-dianisidine hydrochloride), and absorbance read at 490 nm. MPO units were calculated as the change in absorbance with respect to time.
Peripheral blood was examined by the Missouri University Research Animal Diagnostic Laboratory (Columbia, Mo.) for determination of total blood cell counts and differentials in blood samples.
Values are shown as the mean±S.E. Data were analyzed using a standard Student's t test or one-way analysis of variance, groups were compared by Newman-Keuls test, and significance in all cases was defined at p<0.05.

S1P receptor 1 (S1PR1) [3] = target: T1, S1P receptor 1 (S1PR1) (Homo sapiens, UniProt P21453); experiment: Ubiquitination of S1PR1 in HPAEC (immunoprecipitation, ubiquitin Ab); conditions: for ubiquitination of S1PR1 at 2 h: 1 μM (SEW2871 10 μM); for ubiquitination of S1PR1 at 1 h: 1 μM
Source text: S1PR1 was immunoprecipitated by S1PR1Ab, and ubiquitination of S1PR1 was detected by ubiquitin Ab.

[4] = system: lung vascular leakage in RILI mice; experiment: ViSen FMT lung imaging of intravascular probe extravasation in RILI mice; format: in vivo, mouse; conditions: 0.1 mg/kg, 25 Gy, 6 weeks
Procedure: Lung imaging studies were also performed with assessment of RILI-induced extravasation of an intravascular probe.
To assess microvascular changes associated with RILI in real-time, mice were imaged with ViSen FMT 1500 Quantitative Tomography In Vivo Imaging System. Intergisens^750 NIR (ViSen Medicals, Bedford, Mass.) was used as a probe, which targets the vasculature as a selective non-peptide small molecule integrin αvβ3 antagonist and a near-infrared fluorochrome. Mice were injected with probe ([…], IV) at 6 weeks post radiation and imaged 24 hrs later. Probe intensity was quantified using TrueQuant 3D software (VisSen Medicals).

S1P receptor 1 (S1PR1) [5] = target: T1, S1P receptor 1 (S1PR1); experiment: S1PR1 protein expression in HPAEC by Western blot; format: cell-based; set-up: Cells were collected and S1PR1 expression level was detected by Western blot; endogenous in cells; host or cells: HPAEC (human pulmonary artery endothelial cells); conditions: for S1PR1 expression level compared to control: 1 μM (SEW2871 10 μM), 4 h
Source text: Cells were collected and S1PR1 expression level was detected by Western blot.

HPAEC = experiment: Pharmacologic inhibitor effects on barrier enhancement (TER); conditions: 1 μM agonist, 60 min; for % Inhibition of Maximal TER Response (of Agonist-Only Control), PTX: 2-h preincubation 100 ng/ml PTX; for % Inhibition of Maximal TER Response (of Agonist-Only Control), MβCD: 2-h preincubation 2 mM MβCD; for % Inhibition of Maximal TER Response (of Agonist-Only Control), Gen: 30-min preincubation 200 μM genistein
Procedure: Endothelial cells were grown to confluence in polycarbonate wells containing evaporated gold microelectrodes (surface area, 10^−3 cm^2) in series with a large gold counter electrode (1 cm^2) connected to a phase-sensitive lock-in amplifier. Current was applied across the electrodes by a 4,000-Hz AC voltage source with amplitude of 1 V in series with a 1 MΩ resistance to approximate a constant current source (˜1 μA). The in-phase and out-of-phase voltages between the electrodes were monitored in real time with the lock-in amplifier and subsequently converted to scalar measurements of transendothelial impedance, of which resistance was the primary focus. TER was monitored for 30 minutes to establish a baseline resistance (R0) which, for bovine pulmonary endothelium, was typically between 8 to 12×10^3Ω (wells with R0<7×10^3Ω were rejected). As cells adhere and spread out on the microelectrode, TER increases (maximal at confluence), whereas cell retraction, rounding, or loss of adhesion is reflected by a decrease in TER. These measurements provide a highly sensitive biophysical assay that indicates the state of cell shape and focal adhesion. Values from each microelectrode were pooled at discrete time points and plotted versus time as the mean±SE of the mean. TER values from each microelectrode were pooled as discrete time points and plotted versus time as the mean±S.E.M.
In this experiment, confluent HPAEC were plated on gold microelectrodes and then stimulated with 1 μM S1P, FTY720, 1R, 1S, 2R, or 2S after either a 2-h preincubation with 100 ng/ml PTX, 30-min preincubation with 200 μM genistein (Gen), or 2-h preincubation with 2 mM MβCD or their respective vehicle controls. Data were pooled from multiple TER experiments (4-10 independent experiments per condition) and expressed as percentage inhibition of maximal barrier enhancement at 60 min relative to agonist-only control.

[6] = system: radiation-induced lung injury (RILI) in C57BL/6 mice; experiment: Murine model of RILI: BAL protein, BAL cell counts, BAL cytokines, EBD extravasation, body weight, lung histology; format: in vivo, mouse; conditions: for lung histology: inflammatory cell infiltration and interstitial edema induced by radiation: 0.1 mg/kg i.p. 2×/wk, 25 Gy; for lung histology: inflammatory cell infiltration and interstitial edema induced by radiation / BAL cell counts vs RILI-challenged controls / BAL protein vs RILI-challenged controls: 6 weeks; for BAL cell counts vs RILI-challenged controls / BAL protein vs RILI-challenged controls: 0.01 or 0.1 mg/kg i.p. 2×/wk from 1 wk before irradiation (20 Gy); for BAL cell counts vs RILI controls / BAL protein levels vs RILI controls: 3 times/wk from 1 wk before irradiation (20 Gy) up to 6 wks; for BAL cell counts vs RILI controls / BAL protein levels vs RILI controls / body weight loss after irradiation: simvastatin 10 mg/kg; for body weight loss after irradiation: analogs 0.1 mg/kg i.p., 3 times/wk from 1 wk before irradiation up to 6 wks
Procedure: Eight to 10-week-old C57BL/6J mice (Jackson Labs, Bar Harbor, Me.) were used for all studies in accordance with the University of Chicago Institutional Animal Care & Use Committee guidelines.
At the termination of each experiment, animals were euthanized by exsanguination under anesthesia in accordance with institutional guidelines. Both lungs were lavaged with 1.0 mL of Hank's buffered saline solution with the fluid allowed to equilibrate for 10 s before withdrawing. The pulmonary vasculature was perfused clear via the pulmonary artery with sterile phosphate-buffered saline (PBS). Both lungs were excised, weighed, and snap-frozen in liquid nitrogen for subsequent analysis. The BAL fluid collected was centrifuged at 500×g for 20 min at 4° C., and the supernatant was removed and recentrifuged at 12,000×g before snap-freezing. Cell pellets were resuspended in 0.5 mL of red blood cell lysis buffer (ACK Lysing Buffer; BioSource International, Camarillo, Calif.) for 20 min and then repelleted by centrifugation at 2500 rpm for 20 min at 4° C. The supernatant was decanted, and the cell pellet was resuspended in 0.2 mL of PBS for cellular analysis using a standard hemacytometer technique. A total of 300 BAL cells per slide were counted for cell differentials using a Diff-Quick-stained kit (Baxter Diagnostics, McGaw Park, Ill.). BAL protein concentrations were determined by a colorimetric BCA assay. Albumin concentrations in the BAL at 1:1000 and 1:100 dilutions, respectively, were quantitated by ELISA (Bethyl Labs, Montgomery, Tex.). To measure cytokines and chemokines, the BAL fluid was assayed with a Bioplex mouse cytokine kit (Bio-Rad, Hercules, Calif.) in accordance with the manufacturer's instructions.
All other chemicals were analytical or cell-culture grade and were obtained from various commercial sources. Evans Blue dye conjugated to albumin (EBA) was prepared by dissolving EBD to a concentration of 0.5% (5 mg/mL or 5.2 mM) in phosphate-buffered saline (PBS) (Ca^2+-Mg^2+ free; Invitrogen Corporation, Carlsbad, Calif.). To this solution, BSA was added to a final concentration of 4% (40 mg/mL or 0.6 mM), mixed well by stirring with a magnetic bar, allowed to stand for 30 min, and then sterile-filtered through a 0.22-μm syringe filter. The conjugate was stored in small aliquots at −80° C. To prevent cross-contamination, each aliquot was used only once in one animal and then discarded. 4, 6, 8, or 12 weeks after irradiation, the animals were injected with EBA via the jugular vein. At the end of exposure, the pulmonary circulation was flushed and lungs were harvested. Formamide extracts of lungs were prepared, with the initial modification that the homogenates were centrifuged at 12,000×g. Centrifugation at this relative centrifugal force (RCF) produced a compact pellet that allowed accurate measurement of the recovered volumes. Accurate estimation of such volumes is critical for calculating the final tissue dilution factor. Lungs, kidneys, and hearts from mice that were not injected with EBA were similarly extracted, to calculate the tissue-specific correction factors. […] Linear regression equations between absorbance at 740 nm (X) and 620 nm (Y) in tissue extracts of animals untreated with EBA were considered to be the tissue-specific correction factors. […] The EB concentration read in mg/mL was converted to μg/g wet weight of lungs using the dilution factor of the original homogenate as described above.
Eight to 10-week-old C57BL/6J mice (Jackson Labs, Bar Harbor, Me.) were used for all studies in accordance with the University of Chicago Institutional Animal Care & Use Committee guidelines. […] (FIG. 4A). Bronchoalveolar lavage (BAL) was performed as described above. BAL protein concentrations were determined by a colorimetric BCA assay. Albumin concentrations in the BAL at 1:1000 and 1:100 dilutions, respectively, were quantitated by ELISA (Bethyl Labs, Montgomery, Tex.).

T1 sequence (P21453 whole entry): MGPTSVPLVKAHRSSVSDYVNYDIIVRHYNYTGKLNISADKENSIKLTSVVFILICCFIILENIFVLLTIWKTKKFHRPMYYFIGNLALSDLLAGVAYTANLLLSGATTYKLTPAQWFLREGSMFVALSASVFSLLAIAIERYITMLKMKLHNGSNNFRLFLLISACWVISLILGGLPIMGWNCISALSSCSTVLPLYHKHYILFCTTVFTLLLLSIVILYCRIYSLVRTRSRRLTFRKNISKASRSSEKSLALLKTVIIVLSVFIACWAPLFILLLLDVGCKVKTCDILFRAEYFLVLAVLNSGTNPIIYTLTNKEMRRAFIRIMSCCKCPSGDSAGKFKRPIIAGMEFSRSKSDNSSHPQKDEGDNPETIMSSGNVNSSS

## CCCCCCCCc1ccc(CC[C@@](N)(CO)CCP(=O)(O)O)cc1 [1S, (S)-3-amino-3-(hydroxymethyl)-5-(4-octylphenyl)pentylphosphonic acid]
[1]; 0.1 mg/kg i.p. 3× a week
  BAL protein after 14 days, compared to FTY720: Decreased BAL protein
  animals alive by day 12 following bleomycin instillation: 83%
[1]
  mice survived to 14 days: 5 out of 6
β-arrestin
  activation of β-arrestin (blue/green emission ratio): only slightly activated
[2]; 18 h
  capillary leak as total BAL protein, relative to PBS control: significantly reduced capillary leak
[2]
  peripheral blood leukocyte and lymphocyte levels relative to PBS controls: does not further alter peripheral blood leukocyte and lymphocyte levels
[2]; i.p. 1 h after LPS, 18 h
  BAL WBC accumulation: significantly reduced
  LPS-induced albumin leakage into BAL: significantly reduced
  LPS-induced albumin leakage into lung tissue: significantly reduced
  lung tissue MPO activity: significantly reduced
[2]; mouse, in vivo
  hematologic toxicity: without apparent hematologic toxicity
[2]; preliminary studies, data not shown
  comparison with 1R, 2R, 2S in the LPS model: superior to the other barrier-promoting analogs
S1P receptor 1 (S1PR1) [3]
  ubiquitination of S1PR1 at 2 h: does not induce ubiquitination
  ubiquitination of S1PR1 at 1 h: only slight ubiquitination
[4]
  radiation-induced probe extravasation (probe intensity), FMT imaging: significant decreases
S1P receptor 1 (S1PR1) [5]
  S1PR1 expression level compared to control: 87.6%
S1P receptor 1 (S1PR1) [5]; 1 μM, 4 h (FIG. 18)
  S1PR1 expression, agonist without MG132: 89.5%
S1P receptor 1 (S1PR1) [5]; MG132 10 μM 2 h, then 1 μM agonist 4 h
  S1PR1 expression, agonist after MG132 pretreatment: 99.2%
HPAEC
  % Inhibition of Maximal TER Response (of Agonist-Only Control), PTX: 92.8 (±2.6) %
  % Inhibition of Maximal TER Response (of Agonist-Only Control), MβCD: 97.2 (±0.8) %
  % Inhibition of Maximal TER Response (of Agonist-Only Control), Gen: 51.9 (±21.0) %
[6]
  lung histology: inflammatory cell infiltration and interstitial edema induced by radiation: markedly attenuated
  BAL cell counts vs RILI-challenged controls: significant decreases
  BAL protein vs RILI-challenged controls: significant decreases
  BAL cell counts vs RILI controls: significant decreases
  BAL protein levels vs RILI controls: significant decreases
  body weight loss after irradiation: did not lose weight

## CCCCCCCCc1ccc(CCC(N)(CO)CO)cc1 [FTY720, 2-amino-2-[2-(4-octylphenyl)ethyl]propane-1,3-diol]
[1]; 0.1 mg/kg i.p. 3× a week
  animals alive by day 12 following bleomycin instillation: 17%
[1]
  mice survived to 14 days: 1 out of the 6
β-arrestin
  activation of β-arrestin (blue/green emission ratio): strongly activated
[2]; 18 h
  capillary leak as total BAL protein, relative to PBS control: reduction in permeability by 1S was comparable to that achieved by S1P or FTY720
[2]
  peripheral blood leukocyte and lymphocyte levels relative to PBS controls: does not suppress circulating WBC levels
S1P receptor 1 (S1PR1) [3]
  ubiquitination of S1PR1 at 2 h: significant ubiquitination
  ubiquitination of S1PR1 at 1 h: only slight ubiquitination
[4]
  radiation-induced probe extravasation (probe intensity), FMT imaging: no evidence of protection
S1P receptor 1 (S1PR1) [5]
  S1PR1 expression level compared to control: 35.0%
HPAEC
  % Inhibition of Maximal TER Response (of Agonist-Only Control), PTX: 84.0 (±9.1) %
  % Inhibition of Maximal TER Response (of Agonist-Only Control), MβCD: 88.1 (±5.6) %
  % Inhibition of Maximal TER Response (of Agonist-Only Control), Gen: 86.2 (±10.7) %
[6]
  lung histology: inflammatory cell infiltration and interstitial edema induced by radiation: to a lesser extent
  BAL cell counts vs RILI-challenged controls: did not confer significant protection
  BAL protein vs RILI-challenged controls: did not confer significant protection
  BAL cell counts vs RILI controls: did not confer significant protection
  BAL protein levels vs RILI controls: did not confer significant protection
  body weight loss after irradiation: did not show any beneficial effect
